Patent publication US11046699B2, “Pyrazolo-pyrimidin-amino-cycloalkyl compounds and their therapeutic uses” (RAPT THERAPEUTICS, INC., priority 2018, dated 2021)

target: GCN2 (Homo sapiens, UniProt Q9P2K8); experiment: GCN2 enzymatic endpoint assay: phosphorylation of GFP-eIF2α measured by TR-FRET (Lanthascreen); assay type: biochemical; conditions: tested as described in Example 77; compound and/or hydrochloride, dihydrochloride or trifluoroacetic acid salt; read-out: IC 50 Activity
Method in brief: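 2 μM ATP, 80 nM GFP-eIF2α, RT, 90 min; EDTA stop. Tb-anti-phospho antibody TR-FRET read, 520/495 nm ratio.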

Chain of GCN2 (Q9P2K8 whole entry): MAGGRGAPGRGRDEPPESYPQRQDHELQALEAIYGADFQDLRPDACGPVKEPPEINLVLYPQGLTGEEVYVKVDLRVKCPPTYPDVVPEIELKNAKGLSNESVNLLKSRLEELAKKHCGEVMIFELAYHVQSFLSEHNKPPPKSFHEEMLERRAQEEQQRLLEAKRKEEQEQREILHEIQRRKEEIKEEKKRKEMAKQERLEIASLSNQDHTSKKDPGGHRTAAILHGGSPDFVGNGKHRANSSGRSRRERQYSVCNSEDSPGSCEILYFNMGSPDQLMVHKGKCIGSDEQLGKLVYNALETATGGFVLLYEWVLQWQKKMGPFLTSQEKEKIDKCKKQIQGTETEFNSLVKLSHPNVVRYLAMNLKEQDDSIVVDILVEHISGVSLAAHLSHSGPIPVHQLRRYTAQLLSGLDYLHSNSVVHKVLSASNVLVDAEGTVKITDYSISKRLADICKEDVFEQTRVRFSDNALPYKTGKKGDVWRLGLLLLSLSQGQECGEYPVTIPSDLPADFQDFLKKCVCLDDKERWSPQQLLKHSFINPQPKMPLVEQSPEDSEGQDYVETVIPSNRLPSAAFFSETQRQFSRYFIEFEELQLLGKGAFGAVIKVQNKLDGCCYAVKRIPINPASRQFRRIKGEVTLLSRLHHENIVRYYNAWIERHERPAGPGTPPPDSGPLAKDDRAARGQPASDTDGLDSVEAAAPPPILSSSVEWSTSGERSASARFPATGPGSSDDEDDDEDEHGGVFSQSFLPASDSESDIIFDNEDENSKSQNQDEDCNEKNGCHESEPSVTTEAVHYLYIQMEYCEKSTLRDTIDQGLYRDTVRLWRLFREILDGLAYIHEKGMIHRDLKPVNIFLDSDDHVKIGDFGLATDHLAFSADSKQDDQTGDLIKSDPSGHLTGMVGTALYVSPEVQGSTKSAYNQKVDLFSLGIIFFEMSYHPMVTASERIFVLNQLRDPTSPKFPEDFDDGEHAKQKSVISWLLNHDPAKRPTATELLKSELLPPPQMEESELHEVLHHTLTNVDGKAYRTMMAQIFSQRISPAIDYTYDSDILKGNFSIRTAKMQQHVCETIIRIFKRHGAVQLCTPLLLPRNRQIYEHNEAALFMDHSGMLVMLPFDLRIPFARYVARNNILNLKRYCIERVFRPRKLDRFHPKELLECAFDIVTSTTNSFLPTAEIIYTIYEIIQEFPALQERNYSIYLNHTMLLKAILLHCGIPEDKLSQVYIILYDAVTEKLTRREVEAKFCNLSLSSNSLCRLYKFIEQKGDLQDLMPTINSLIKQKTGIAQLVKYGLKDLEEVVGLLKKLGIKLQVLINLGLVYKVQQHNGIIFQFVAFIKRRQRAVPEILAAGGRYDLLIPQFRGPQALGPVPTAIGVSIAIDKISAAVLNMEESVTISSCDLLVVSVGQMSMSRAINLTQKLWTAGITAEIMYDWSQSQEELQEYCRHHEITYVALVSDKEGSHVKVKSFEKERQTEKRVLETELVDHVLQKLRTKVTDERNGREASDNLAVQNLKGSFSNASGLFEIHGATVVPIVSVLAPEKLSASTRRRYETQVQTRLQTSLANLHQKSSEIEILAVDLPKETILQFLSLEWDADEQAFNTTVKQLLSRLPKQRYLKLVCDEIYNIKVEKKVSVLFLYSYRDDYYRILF

Compound	IC50 [µM]
Cc1nnc(-c2ccc(-n3nc(Br)c4cnc(N[C@@H]5CC[C@@](C)(C(=O)N6CCNC(=O)C6)C5)nc43)cc2)o1 [4-[(1R,3R)-3-[[3-bromo-1-[4-(5-methyl-1,3,4-oxadiazol-2-yl)phenyl]pyrazolo [3,4-d]pyrimidin-6-yl]amino]-1-methyl-cyclopentanecarbonyl]piperazin-2-one]	0.025 to 0.2
CNC(=O)[C@]1(C)CC[C@@H](Nc2ncc3c(Br)nn(-c4ccc(-c5nnc(C(=O)NCCN(C)C)s5)cc4)c3n2)C1 [5-[4-[3-bromo-6-[[(1R,3R)-3-methyl-3-(methylcarbamoyl)cyclopentyl]amino]pyrazolo[3,4-d]pyrimidin-1-yl]phenyl]-N-[2-(dimethylamino)ethyl]-1,3,4-thiadiazole-2-carboxamide]	0.025 to 0.2
CNC(=O)[C@]1(C)CC[C@@H](Nc2ncc3c(Br)nn(-c4ccc(-c5nnc(C(=O)N(C)CCN(C)C)s5)cc4)c3n2)C1 [5-[4-[3-bromo-6-[[(1R,3R)-3-methyl-3-(methylcarbamoyl)cyclopentyl]amino]pyrazolo[3,4-d]pyrimidin-1-yl]phenyl]-N-[2-(dimethylamino)ethyl]-N-methyl-1,3,4-thiadiazole-2-carboxamide]	0.025 to 0.2
N#Cc1cc(-n2nc(Br)c3cnc(N[C@@H]4CC[C@@H](C(=O)N5CCN(C(=O)C6CC6)CC5)C4)nc32)cc2cccnc12 [6-(3-bromo-6-(((1R,3R)-3-(4-(cyclopropanecarbonyl)piperazine-1-carbonyl)cyclopentyl)amino)-1H-pyrazolo [3,4-d]pyrimidin-1-yl)quinoline-8-carbonitrile]	0.025 to 0.2
CN1CCN(C(=O)[C@@H]2CC[C@@H](Nc3ncc4c(Br)nn(-c5cc(C#N)c6ncccc6c5)c4n3)C2)CC1=O [6-(3-bromo-6-(((1R,3R)-3-(4-methyl-3-oxo-piperazine-1-carbonyl)cyclopentyl)amino)-1H-pyrazolo[3,4-d]pyrimidin-1-yl)quinoline-8-carbonitrile]	0.025 to 0.2
C[C@@H]1C(=O)N(C)CCN1C(=O)[C@@H]1CC[C@@H](Nc2ncc3c(Br)nn(-c4cc(C#N)c5ncccc5c4)c3n2)C1 [6-(3-bromo-6-(((1R,3R)-3-((R)-2,4-dimethyl-3-oxopiperazine-1-carbonyl)cyclopentyl)amino)-1H-pyrazolo[3,4-d]pyrimidin-1-yl) quinoline-8-carbonitrile]	< 0.025
N#Cc1cc(-n2nc(Br)c3cnc(N[C@@H]4CC[C@@H](C(=O)N5CCC5)C4)nc32)cc2cccnc12 [6-(6-(((1R,3R)-3-(azetidine-1-carbonyl)cyclopentyl)amino)-3-bromo-1H-pyrazolo [3,4-d]pyrimidin-1-yl)quinoline-8-carbonitrile]	0.025 to 0.2
C[C@@H]1C(=O)N(C)CCN1C(=O)[C@@H]1CC[C@@H](Nc2ncc3c(Br)nn(-c4cc(C#N)c5ncccc5c4)c3n2)C1 [6-[3-bromo-6-[[(1R,3R)-3-[(2R)-2,4-dimethyl-3-oxo-piperazine-1-carbonyl]cyclopentyl]amino]pyrazolo[3,4-d]pyrimidin-1-yl] quinoline-8-carbonitrile]	< 0.025

Second part, the compound after the results:

IC50 [µM]	Compound
0.5 to 1	O=C(O)C12CCC(Nc3ncc4c(Br)nn(-c5ccc6ncccc6c5)c4n3)(C1)C2 [4-((3-bromo-1-(quinolin-6-yl)-1H-pyrazolo [3,4-d]pyrimidin-6-yl)amino)bicyclo[2.1.1] hexane-1-carboxylic acid]
0.025 to 0.2	CNC(=O)[C@]1(C)CCC(Nc2ncc3c(Br)nn(-c4ccc(C(N)=O)c(Cl)c4)c3n2)C1 (stereo partly drawn) [4-[3-bromo-6-[[(3R)-3-methyl-3-(methylcarbamoyl)cyclopentyl]amino]pyrazolo[3,4-d]pyrimidin-1-yl]-2-chloro-benzamide]
< 0.025	C[C@@]1(C(=O)N2CCNC(=O)C2)CC[C@@H](Nc2ncc3c(Br)nn(-c4cc(F)c5ncccc5c4)c3n2)C1 [4-[(1R,3R)-3-[[3-bromo-1-(8-fluoro-6-quinolyl)pyrazolo[3,4-d]pyrimidin-6-yl]amino]-1-methyl-cyclopentanecarbonyl] piperazin-2-one]
0.2 to 0.5	COc1ccc(-n2nc(Br)c3cnc(N[C@@H]4CC[C@@H](C(=O)N5CCN(C)C(=O)C5)C4)nc32)cc1C#N [5-(3-bromo-6-(((1R,3R)-3-(4-methyl-3-oxo-piperazine-1-carbonyl)cyclopentyl)amino)-1H-pyrazolo[3,4-d]pyrimidin-1-yl)-2-methoxybenzonitrile]
0.025 to 0.2	N#Cc1cc(-n2nc(Br)c3cnc(N[C@@H]4CC[C@@H](C(=O)N5CC(N6CCC(F)(F)C6)C5)C4)nc32)cc2cccnc12 [6-(3-bromo-6-(((1R,3R)-3-(3-(3,3-difluoro-pyrrolidin-1-yl)azetidine-1-carbonyl)cyclo-pentyl)amino)-1H-pyrazolo[3,4-d]pyrimidin-1-yl)quinoline-8-carbonitrile]
< 0.025	N#Cc1cc(-n2nc(Br)c3cnc(N[C@@H]4CC[C@@H](C(=O)N5CC(F)C5)C4)nc32)cc2cccnc12 [6-(3-bromo-6-(((1R,3R)-3-(3-fluoroazetidine-1-carbonyl)cyclopentyl)amino)-1H-pyrazolo [3,4-d]pyrimidin-1-yl)quinoline-8-carbonitrile]
0.025 to 0.2	CN1CN(C(=O)[C@@H]2CC[C@@H](Nc3ncc4c(Br)nn(-c5cc(C#N)c6ncccc6c5)c4n3)C2)CC1=O [6-(3-bromo-6-(((1R,3R)-3-(3-methyl-4-oxo-imidazolidine-1-carbonyl)cyclopentyl)amino)-1H-pyrazolo[3,4-d]pyrimidin-1-yl) quinoline-8-carbonitrile]
< 0.025	N#Cc1cc(-n2nc(Br)c3cnc(N[C@@H]4CC[C@@H](C(=O)N5CCNC(=O)C5)C4)nc32)cc2cccnc12 [6-(3-bromo-6-(((1R,3R)-3-(3-oxopiperazine-1-carbonyl)cyclopentyl)amino)-1H-pyrazolo [3,4-d]pyrimidin-1-yl)quinoline-8-carbonitrile]
0.025 to 0.2	N#Cc1cc(-n2nc(Br)c3cnc(N[C@@H]4CC[C@@H](C(=O)N5CCN(C(=O)CO)CC5)C4)nc32)cc2cccnc12 [6-(3-bromo-6-(((1R,3R)-3-(4-(2-hydroxyacetyl)piperazine-1-carbonyl)cyclopentyl)amino)-1H-pyrazolo[3,4-d]pyrimidin-1-yl)quinoline-8-carbonitrile]
< 0.025	C[C@H]1C(=O)N(C)CCN1C(=O)[C@@H]1CC[C@@H](Nc2ncc3c(Br)nn(-c4cc(C#N)c5ncccc5c4)c3n2)C1 [6-(3-bromo-6-(((1R,3R)-3-((S)-2,4-dimethyl-3-oxopiperazine-1-carbonyl)cyclopentyl)amino)-1H-pyrazolo[3,4-d]pyrimidin-1-yl) quinoline-8-carbonitrile]
0.025 to 0.2	N#Cc1cc(-n2nc(Br)c3cnc(N[C@@H]4CC[C@@H](C(=O)N5CCCC5)C4)nc32)cc2cccnc12 [6-(3-bromo-6-(((1R,3R)-3-(pyrrolidine-1-carbonyl)cyclopentyl)amino)-1H-pyrazolo [3,4-d]pyrimidin-1-yl)quinoline-8-carbonitrile]
0.025 to 0.2	CN1CCC2(CCN(C(=O)[C@@H]3CC[C@@H](Nc4ncc5c(Br)nn(-c6cc(F)c7ncccc7c6)c5n4)C3)C2)C1=O (stereo partly drawn) [7-((1R,3R)-3-((3-bromo-1-(8-fluoroquinolin-6-yl)-1H-pyrazolo[3,4-d]pyrimidin-6-yl)amino)cyclopentane-1-carbonyl)-2-methyl-2,7-diazaspiro[4.4]nonan-1-one]
